Our source for the IC50 values is patent US10189837B2, “Crystalline (8S,9R)-5-fluoro-8-(4-fluorophenyl)-9-(1-methyl-1H-1,2,4-triazol-5-yl)-8,9-dihydro-2H-pyrido[4,3,2-de]phthalazin-3(7H)-one tosylate salt” (Medivation Technologies, LLC, priority 2010, dated 2019).

The structures appear in SMILES notation.

Common to all, as to type: cell-based
Experiment [1] concerns Mantle cell lymphoma cell line Z138. Nature of the experiment: Single-agent cytotoxicity assay, CellTiter Glo cell survival. Particulars: Homo sapiens, Z-138, 96 h, 4-day assay. As to the method:
(§1) Mantle cell lymphoma cell line Granta-519 was cultured in Dulbecco's MEM (4.5 g/L glucose) containing 10% FBS, 2 mM L-glutamine, 100 U/mL Penicillin and 100 μg/mL Streptomycin. Mantle cell lymphoma cell line Jeko-1 was cultured in RPMI1640 containing 10% FBS, 100 U/mL Penicillin and 100 μg/mL Streptomycin. Mantle cell lymphoma cell line Z138 was cultured in IMDM containing 10% horse serum, 100 U/mL Penicillin and 100 μg/mL Streptomycin. All cell lines were maintained in 37° C. incubator with 5% CO2 till ready for assay. Granta-519, Jeko-1 and Z138 cells were seeded at either 1000 or 5000 cells/well in 96-well plates. Cells were incubated for overnight at 37° C. before treated with their corresponding growth media containing free base in 0.1% DMSO at various concentrations ranging from 1000 nM to 0.32 nM. 0.1% DMSO was used as mock treatment or control. After 4 days incubation, cell survival was measured by CellTiter Glo (Promega) and cell survival fraction was calculated relative to control. GraphPad Prism5 software was used to plot data and calculate IC50 values.
A general note: Cellular ATP, detected with luciferase, serves as a proxy for viable cell number.

Experiment [2] has as its system Mantle cell lymphoma cell line Jeko-1. The description is as above. The settings on record: Homo sapiens, JeKo-1, 96 h, 4-day assay. Here is the method:
as §1

In experiment [3] the test system is Mantle cell lymphoma cell line Granta-519. The description is as above. Particulars: Homo sapiens, Granta-519, 96 h, 4-day assay. Here is the method:
as §1

The subject of experiment [4] is Basaloid squamous cell line PE/CA-PJ34 (clone 12). Briefly: Single-agent cytotoxicity assay in head & neck tumor cell lines. As to the method:
(§2) Oral squamaous carcinoma HSC-3 and HSC-4 cells were cultured in MEM+10% FBS. Oral squamaous carcinoma CAL 27 was cultured in DMEM+10% FBS. Basaloid squamous cell line PE/CA-PJ34 (clone 12) was cultured in IMDM+10% FBS. All cell lines were maintained in their corresponding growth media containing 100 U/mL Penicillin and 100 μg/mL Streptomycin in 37° C. incubator with 5% CO2 till ready for assay. According to individual cell line growth rate, cells were seeded at different densities as indicated in each graph in 96-well plates in the time of assay. Cells were incubated for overnight at 37° C. before treated with their corresponding growth media containing free base in 0.1% DMSO at various concentrations ranging from 5000 nM to 0.064 nM. 0.1% DMSO was used as mock treatment or control. Media and compound were replenished every 5 days. After incubation for 7, 10, 11 or 13 days (as indicated in each graph), cell survival was measured by CellTiter Glo (Promega) and cell survival fraction was calculated relative to control. GraphPad Prism5 software was used to plot data and calculate IC50 values.

In experiment [5] the test system is Oral squamaous carcinoma HSC-3 cells. Described as above. Particulars: Homo sapiens. Here is the method:
as §2

In experiment [6] the test system is Oral squamaous carcinoma CAL 27. The experiment is described as above. Particulars: Homo sapiens. Here is the method: as §2
In experiment [7] the test system is Oral squamaous carcinoma HSC-4 cells. The description is as above. Particulars: Homo sapiens. Here is the method: as §2

The IC50 is the point on the concentration scale where inhibition reaches its midpoint. Low readings indicate greater potency in that assay, high ones weaker potency in that assay.

`Cn1ncnc1[C@H]1c2n[nH]c(=O)c3cc(F)cc(c23)N[C@@H]1c1ccc(F)cc1` [free base, (8S,9R)-5-fluoro-8-(4-fluorophenyl)-9-(1-methyl-1H-1,2,4-triazol-5-yl)-8,9-dihydro-2H-pyrido[4,3,2-de]phthalazin-3(7H)-one]: the IC50 in experiment [1] (Z-138, 1000/well) is 10.4 nM; in experiment [1] (Z-138, 5000/well), 59.4 nM; in experiment [2] (Jeko-1, 1000/well), 64.2 nM; in experiment [2] (Jeko-1, 5000/well), 357 nM; in experiment [3] (Granta-519, 1000/well) it was 1.7 nM; in experiment [3] (Granta-519, 5000/well), 8.83 nM. Also, the IC50 in experiment [4] (240 h, PE/CA-PJ34 C12, 10 days, 2000/well) was found to be 13.6 nM; in experiment [4] (312 h, PE/CA-PJ34 C12, 13 days, 1000/well) it was 18.1 nM; in experiment [5] (168 h, HSC-3, 7 days, 1500/well), 972 nM; in experiment [5] (264 h, HSC-3, 11 days, 750/well) it was 931 nM; in experiment [6] (CAL-27, 168 h, CAL27, 7 days, 800/well), 23 nM; in experiment [6] (CAL-27, 264 h, CAL27, 11 days, 400/well), 15.3 nM. Moreover, the half-inhibitory concentration (IC50) came to 58 nM in experiment [7] (168 h, HSC-4, 7 days, 100/well) and 48.8 nM in experiment [7] (264 h, HSC-4, 11 days, 200/well).
